Data taken from patent publication US20140243374A1, “Novel Sulfonamides” (The Brigham and Women's Hospital, Inc., priority 2011, published 2014).
Values joined by “and” are separate entries in the source; they are usually repeats but may differ in a detail not shown here. Equal values may be shown once.

What was measured:
Assay type in all cases: cell-based
[1] = biological target: T1, γ-secretase (cleavage of APP, Aβ42) (Homo sapiens, UniProt P49768); experiment: Aβ (1-42) cellular assay (Aβ ELISA, HEK AP-GL-T1 6 cells); settings: cellular Aβ42 ELISA, 24 h compound treatment
T1 construct: endogenous in cells; host or cells: HEK AP-GL-T16 luciferase reporter cells (tetracycline-induced APP substrate)
Protocol: Aβ (1-42) Cellular Assay.
The following assay was used to determine the extent to which the compounds of interest inhibit the cleavage of APP in vivo. AβELISA is a commercial fluorometric kit from Biosource (Invitrogen 89344). Luciferase reporter HEK AP-GL-T1 6 cells were plated at 50,000 cells/well in 96 well plates in DMEM media containing 10% tetracyclin free […], 250 μg/mL zeocin, 200 μg/mL hygromycin, and 5 μg/mL blasticidin. Compounds were added 24 h after plating and APP processing is induced simultaneously by addition of tetracycline. Following a 24 h compound treatment, […] of conditioned cell media is collected, mixed with ELISA diluent buffer containing 2 mM AEBSF and 12 mM o-phenanthroline, and immediately frozen at −80° C. For the ELISA, the samples were brought to room temperature and spun at 5000 rpm for 5 min. Samples ([…]) are incubated in the ELISA plate with […] detection antibody on a shaker at room temperature for 3 h. Wells were then washed 4 times with wash buffer and 100 mL of secondary antibody are added and incubated at room temperature for 30 min. Wells were again washed 4 times with wash buffer and 100 mL of fluorescent substrate solution are added. After 30 minutes of incubation, fluorescent signals are determine on a Gemini reader at ex 460 nm and em 560 nm. The amount of Aβ levels in each sample was determined from a standard curve generated by known concentrations of Aβ peptide run simultaneously with the samples.

[2] = biological target: T2, γ-secretase (cleavage of Notch) (Homo sapiens, UniProt P49768); experiment: Notch cellular assay (luciferase reporter U2OS cells); settings: for IC50: U2OS luciferase reporter cells; for Notch Luc/Aβ42: ratio Notch luciferase IC50 to Aβ42 IC50
T2 construct: endogenous in cells; host or cells: U2OS luciferase reporter cells with Tet-on Notch
Protocol: This assay was used to determine if the compounds of interest inhibit the cleavage of Notch by γ-secretase in cells. A U2OS cell line in which the luciferase expression is adjusted by active Notch was used in this assay Notch expression is adjusted using Tet-on promoter. Luciferase reporter U2OS cells are plated at 1000 cells/well in 96 well plates in DMEM containing 100 μg/mL hygromycin, 15 μg/mL blasticidin and 1 μg/mL Tetracycline. Compounds were added 24 h after plating and the cells are lysed 6 days after adding compounds. Luciferase expression was performed using Steady-Glo Luciferase Assay System (Promega).

[3] = biological target: T3, γ-secretase (Notch cleavage activity) (Homo sapiens, UniProt P49768); experiment: Cleaved Notch1 Sandwich ELISA (SUP-T1 cell line); settings: for IC50: SUP-T1 cells, 16 h; for Notch Elisa/Aβ42: ratio Notch Elisa IC50 to Aβ42 IC50
T3 construct: endogenous in cells; host or cells: SUP-T1 cells
Protocol: Cleaved Notch1 Sandwich ELISA.
This assay was used to determine if the compounds of interest inhibit the Notch cleavage activity of γ-secretase in SUP-T1 cell line, which endogenously expresses a truncated Notch receptor fragment that is a viable gamma-secretase substrate. The base medium for this cell line is ATCC-formulated RPMI-1640 Medium with fetal bovine serum to a final concentration of 10%. Prepare dilution of SUP-T1 cells in complete growth medium to 1.0×10^6 cells/mL, seed 1.5 mL per well of each cell dilution into a 6-well plate. Collect cells treated with serial diluted compounds in DMSO after 16 h, then using equal amount of protein isolated from samples to measure Notch intracellular cleavage by PathScan® Sandwich ELISA Kit (Cell Signaling Tech 7194S).

Row | IC50 [1] | IC50 [2] [nM] | IC50 [3] | Notch Elisa/Aβ42 [3] | SMILES | other results
1 | 341 nM and 686 nM and 207 nM | 259000 | 10100 nM | – | O=C(O)c1ccc(CN(C2CCCCC2F)S(=O)(=O)c2ccc(Cl)cc2)cc1 (single isomer, unassigned) [Example 58, 4-((4-Chloro-N-(2-fluorocyclohexyl)phenylsulfonamido)methyl)benzoic acid] | Notch Luc/Aβ42 ([2]; listed as 58/1231A): 630; Notch Elisa/Aβ42 ([3]; listed as 58/1231A): 25
2 | 60.7 nM and 195 nM and 101 nM | 9400 | 2930 nM | – | O=C(O)c1ccc(CN(C2CCCCC2F)S(=O)(=O)c2ccc(Cl)cc2)cc1 (single isomer, unassigned) [Example 59, 4-((4-Chloro-N-(2-fluorocyclohexyl)phenylsulfonamido)methyl)benzoic acid] | Notch Luc/Aβ42 ([2]; listed as 59/1231B): 79; Notch Elisa/Aβ42 ([3]; listed as 59/1231B): 25
3 | 3.4 nM | 3000 | – | – | COC(=O)c1ccc(CN(C2CCCCC2C)S(=O)(=O)c2ccc(Cl)cc2)cc1 (stereo not drawn) [Example 2, Methyl 4-((4-chloro-N-(2-methylcyclohexyl)phenylsulfonamido)methyl)benzoate] | –
4 | 0.87 nM and 0.65 nM and 0.89 nM | – | 180 nM and 120 nM | 188 | CC1CCCCC1N(Cc1ccc(C(=O)N[C@H](C)CO)cc1)S(=O)(=O)c1ccc(Cl)cc1 (stereo partly drawn) [Example 4, 4-((4-Chloro-N-(2-methylcyclohexyl)phenylsulfonamido)methyl)-N-((R)-1-hydroxypropan-2-yl)benzamide] | Notch Luc/Aβ42 [2]: 2950
5 | 24 nM | 13000 | – | – | CC[C@@H](C1CCCC1)N(Cc1ccc(C(=O)OC)cc1)S(=O)(=O)c1ccc(Cl)cc1 [Example 21, (S)-Methyl 4-((4-chloro-N-(1-cyclopentylpropyl)phenylsulfonamido)methyl)benzoate] | Notch Luc/Aβ42 [2]: 542
6 | 80.7 nM | 4580 | – | – | CC1CCCCC1N(Cc1ccc(C(=O)NCCC(=O)O)cc1)S(=O)(=O)c1ccc(Cl)cc1 (stereo not drawn) [Example 36, 3-(4-((4-Chloro-N-(2-methylcyclohexyl)phenylsulfonamido)methyl)benzamido)propanoic acid] | Notch Luc/Aβ42 [2]: 57
7 | 2.56 nM | 3030 | – | – | CC1CCCCC1N(Cc1ccc(C(=O)NCCN(C)C)cc1)S(=O)(=O)c1ccc(Cl)cc1 (stereo not drawn) [Example 40, 4-((4-Chloro-N-(2-methylcyclohexyl)phenylsulfonamido)methyl)-N-(2-(dimethylamino)ethyl)benzamide] | –
8 | 62.2 nM | 3230 | – | – | O=C(O)c1ccc(CN(C2CCCC(C(F)(F)F)C2)S(=O)(=O)c2ccc(Cl)cc2)cc1 (stereo not drawn) [Example 51, 4-((4-Chloro-N-(3-(trifluoromethyl)cyclohexyl)phenylsulfonamido)methyl)benzoic acid] | Notch Luc/Aβ42 [2]: 52
9 | 2.61 nM | 574 | – | – | CC1CCCCC1N(Cc1ccc(C(=O)NCC(F)(F)F)cc1)S(=O)(=O)c1ccc(Cl)cc1 (stereo not drawn) [Example 54, 4-((4-Chloro-N-(2-methylcyclohexyl)phenylsulfonamido)methyl)-N-(2,2,2-trifluoroethyl)benzamide] | Notch Luc/Aβ42 [2]: 220
10 | 4.3 nM | 1100 | – | – | CC1CCCCC1N(Cc1ccc(C(=O)NCCC(F)(F)F)cc1)S(=O)(=O)c1ccc(Cl)cc1 (stereo not drawn) [Example 55, 4-((4-Chloro-N-(2-methylcyclohexyl)phenylsulfonamido)methyl)-N-(3,3,3 trifluoropropyl)benzamide] | Notch Luc/Aβ42 [2]: 256
11 | 12 nM | – | 1070 nM | 89 | C[C@H](CO)NC(=O)c1ccc(CN(C2CCCC(C(F)(F)F)C2)S(=O)(=O)c2ccc(Cl)nc2)cc1 (stereo partly drawn) [Example 64, 4-((6-Chloro-N-(3-(trifluoromethyl)cyclohexyl)pyridine-3-sulfonamido)methyl)-N—((R)-1-hydroxypropan-2-yl)benzamide] | –
12 | 13.7 nM | – | 1150 nM | 84 | C[C@H](CO)NC(=O)c1ccc(CN(C2CCCCC2F)S(=O)(=O)c2ccc(Cl)nc2)cc1 (stereo partly drawn) [Example 65, 4-((6-Chloro-N-(2-fluorocyclohexyl)pyridine-3-sulfonamido)methyl)-N—((R)-1-hydroxypropan-2-yl)benzamide] | –
13 | 10.3 nM | – | 1380 nM | 134 | O=C(NCCO)c1ccc(CN(C2CCCCC2F)S(=O)(=O)c2ccc(Cl)cc2)cc1 (stereo not drawn) [Example 66, 4-((4-Chloro-N-(2-fluorocyclohexyl)phenylsulfonamido)methyl)-N-(2-hydroxyethyl)benzamide] | –
14 | 25.5 nM | – | 830 nM | 33 | O=C(O)c1ccc(CN(C2CCCCC2C(F)(F)F)S(=O)(=O)c2ccc(Cl)cc2)cc1 (stereo not drawn) [Example 68, 4-((4-Chloro-N-(2-(trifluoromethyl)cyclohexyl)phenylsulfonamido)methyl)benzoic acid] | –
15 | 2.16 nM | – | 94 nM | 44 | C[C@@H](CO)NC(=O)c1ccc(CN(C2CCCCC2C(F)(F)F)S(=O)(=O)c2ccc(Cl)cc2)cc1 (stereo partly drawn) [Example 69, 4-((4-Chloro-N-(2-(trifluoromethyl)cyclohexyl)phenylsulfonamido)methyl)-N—((S)-1-hydroxypropan-2-yl)benzamide] | –
16 | 10.4 nM | – | 1100 nM | 106 | C[C@H](O)CNC(=O)c1ccc(CN(C2CCCCC2F)S(=O)(=O)c2ccc(Cl)cc2)cc1 (stereo partly drawn) [Example 73, 4-((4-Chloro-N-(2-fluorocyclohexyl)phenylsulfonamido)methyl)-N—((S)-2-hydroxypropyl)benzamide] | –
17 | 130 nM | – | 10000 nM | 78 | CN(C)CCNC(=O)c1ccc(CN(C2CCCCC2F)S(=O)(=O)c2ccc(Cl)cc2)cc1 (stereo not drawn) [Example 74, 4-((4-Chloro-N-(2-fluorocyclohexyl)phenylsulfonamido)methyl)-N-(2-(dimethylamino)ethyl)benzamide] | –
18 | 32.8 nM and 70.7 nM | – | 4140 nM | 80 | CN(C)CCNC(=O)c1ccc(CN(C2CCCCC2F)S(=O)(=O)c2ccc(Cl)cc2)cc1.Cl (stereo not drawn) [Example 75, 4-((4-Chloro-N-(2-fluorocyclohexyl)phenylsulfonamido)methyl)-N-(2-(dimethylamino)ethyl)benzamide hydrochloride] | –
19 | 89.9 nM | – | 5060 nM | 56 | O=C(O)c1ccc(CN(C2CCCCC2(F)F)S(=O)(=O)c2ccc(Cl)cc2)cc1 (stereo not drawn) [Example 76, 4-((4-Chloro-N-(2,2-difluorocyclohexyl)phenylsulfonamido)methyl)benzoic acid] | –
20 | 14 nM | – | 879 nM | 63 | CC1CCCCC1N(Cc1ccc(C#N)cc1)S(=O)(=O)c1ccc(Cl)cc1 (stereo not drawn) [Example 78, 4-Chloro-N-(4-cyanobenzyl)-N-(2-methylcyclohexyl)benzenesulfonamide] | –
21 | 44.3 nM | – | 1570 nM | 35 | COC(=O)c1ccc(CN([C@@H]2CCCC[C@H]2F)S(=O)(=O)c2ccc(Cl)cc2)cc1 [Example 83, Methyl 4-((4-chloro-N-((1R,2R)-2-fluorocyclohexyl)phenylsulfonamido)methyl)benzoate] | –
22 | 13.3 nM | – | 1180 nM | 89 | COCC(C)NC(=O)c1ccc(CN(C2CCCCC2F)S(=O)(=O)c2ccc(Cl)cc2)cc1 (stereo not drawn) [Example 85, 4-((4-Chloro-N-(2-fluorocyclohexyl)phenylsulfonamido)methyl)-N-(1-methoxypropan-2-yl)benzamide] | –
